In patent US20080183070A1, “Multi-mode medical device system with thermal ablation capability and methods of using same” (Wisconsin Alumni Research Foundation, priority 2007, published 2008):
Blank lines part the entries; values can stand above or below the compound they belong to.

What was measured:
[1] = Diffusion of a fluorescent probe in swollen gelatin gel by FRAP; type: physicochemical
Excerpt: To assess the stability of DTPA[Gd(III)] in the gelatin coating, the diffusion of a fluorescence probe in gelatin was studied by the technique of fluorescence recovery after photobleaching (FRAP). The instrument and data analysis scheme are described in Kim, S. H. and Yu, H., J. Phys. Chem. 1992, 96, 4034, which is hereby fully incorporated by reference. Fluorescein was used as the fluorescence probe due, in part, to its molecular size being roughly the same as that of DTPA[Gd(III)].
The focus of the study was to examine the possible retardation effects of gelatin concentration and cross-link density on the diffusion, which was determined at room temperature, i.e., below the gel point of gelatin. The diffusion of fluorescein probe slows down with the increase of gelatin concentration. The diffusion coefficient decreases from 1.5×10-10 to 9×10-12 m2s−1 when the concentration of gelatin increases from 9% to 40%. […] Accordingly, the probe diffusion is more likely controlled by the concentration of gelatin rather than the cross-link density. On the other hand, the cross-link density may determine the swelling ratio of gelatin, i.e., the concentration of gelatin in aqueous solution. […]

[2] = MR visibility test of the functional gelatin coating on PE rod in saline and yogurt (Example 14); settings: after soaking in water for 12 hours
Procedure: Samples having the above formulations were transferred to a glass tube and kept in a water bath at 35° C. A bare PE rod (5 cm in length) was then dipped into the solution, and then removed. The rod was then cooled to room temperature to allow chill-setting of the gelatin solution and to form the coating on the rod surface. The same procedure was repeated to overcoat additional layers of gel. The final dry thickness of gel-coating was about 60 μm.
The gelatin coatings were dried in air while being chemically cross-linked by BVSM. The dried and cross-linked samples were then soaked in distilled water for 12 hours. Soaking each sample in distilled water may remove the DTPA[Gd(III)] that was not physically or chemically constrained by the cross-linked network of gelatin overcoat. Because the DTPA[Gd(III)] complexes were not chemically linked to the gelatin chains, most of them would be expected to diffuse out of the coating when soaked in water, whereas some of DTPA[Gd(III)] may be confined by the crystal domains in gelatin or by hydrogen bonding between gelatin chains and DTPA. In any event, after the soaking, the gelatin coating was dried again in air before MRI test.
The MR visibility of the samples prepared as outlined above, was tested in two media: saline and yogurt. […]

- Time to diffuse out of the gelatin coating ([1]; coating thickness 60 μm, diffusion coefficient 9×10-12 m2s−1): about 67 seconds
Structure (SMILES): O=C(O)CN(CCN(CC(=O)O)CC(=O)O)CCN(CC(=O)O)CC(=O)O [DTPA, diethylenetriaminepentaacetic acid]

- Fluorescence signal remaining in gelatin films ([1]; films soaked in water for 18 hours, including non-cross-linked films): still fluorescence signal
Structure (SMILES): O=C1OC2(c3ccc(O)cc3Oc3cc(O)ccc32)c2ccccc21 [fluorescein]

Structure (SMILES): O=C([O-])CN(CCN(CC(=O)[O-])CC(=O)O)CCN(CC(=O)[O-])CC(=O)O.[Gd+3] [DTPA[Gd(III)], gadolinium-diethylene triamine pentaacetic acid]
- Retention in the gelatin coating [2]: some fraction of DTPA[Gd(III)] remained in the gel
